Test results as given in patent US20140329863A1 (priority 2011, published 2014).
≈ marks a conversion by molar mass, not a printed value. Like-named read-outs stand apart in the source and are kept apart here.

Legend:
[1] = Toleration studies in mice
[2] = Single-dose pharmacokinetics in FVB mice (oral gavage, IV)
[3] = in vitro; settings: dog, MDCK-MDR1
[4] = system: P-gp (MDR1); test: in vitro; settings: dog, MDCK-MDR1
[5] = physchem
[6] = Hepatic microsomal stability, rat
[7] = system: ScN2a-c13 cells; test: cells; type: cell-based; settings: Mus musculus; N=3; read-out: EC50 by calcein for cell viability
[8] = Hepatic microsomal stability, mouse; settings: for half-life at 1 μM: pH 7.4
[9] = system: PrP^Sc in dividing ScN2a-c13 cells; settings: read-out: EC50 (ELISA), reduction of PrP^Sc load; dividing ScN2a-c13 cells
[10] = Hepatic microsomal stability, human; settings: for half-life at 1 μM: human, pH 7.4
[11] = system: PrP^Sc in dividing ScN2a-cl3 cells; type: cell-based, mouse; parameters: Dividing ELISA pEC50 (μM) 1st Expt. / Dividing ELISA pEC50 (μM) 2nd Expt. / Dividing ELISA pEC50 (μM) 3rd Expt. / Dividing ELISA pEC50 (μM) Mean: unit not given here
[12] = Multidose (three-day) pharmacokinetics in liquid diet in FVB mice; settings: FVB, mouse, in vivo, three-day dosing in liquid diet
[13] = system: PrP^C in T98G cells; type: cell-based, human; settings: read-out: EC50 (μM) ELISA potency, PrP^C in T98G cells
[14] = system: PrP^C in N2a-c13 cells; type: cell-based, mouse; settings: read-out: EC50 (μM) ELISA in N2a-cl3 cells (value in parentheses)
[15] = physchem; remark: listed apart in the source
[16] = pH 7.4
[17] = system: N2a-cl3 cells; test: cells; settings: Mus musculus, N2a-cl3, read-out: Dividing Calcein EC50 (μM) Mean (n = 3)
[18] = system: PrP^Sc in nondividing ScN2a-cl3 cells; type: cell-based, mouse; settings: read-out: Non-Dividing ELISA EC50 (μM) Mean (n = 3); ScN2a-c13 non-dividing cells; mean n = 3
[19] = […]
[20] = system: MDCK-MDR^1 cells (P-glycoprotein); test: Bidirectional MDCK-MDR1 cell permeability; type: in vitro ADME, canine
Method: MDCK-MDR^1 cells were grown to confluence for 5-10 days on 1-μm filters in 24-well plates {Hilgers, 1990}. Aliquots of DMSO stocks were diluted into Hank's balanced salt solution (HBSS), pH 7.4, containing […] to give 10-μM solute concentration. The solute containing donor solutions were transferred to either the apical or basolateral chamber of the permeability diffusion apparatus. Receiver solutions consisted of HBSS (pH 7.4) containing 25 mM HEPES+0.05% PS80. Sequential samples of transported solute were taken at 20-min intervals using an automated liquid handling platform. The concentration of transported solute during each sampling interval was determined by HPLC/UV/MS. Permeability coefficients were calculated for each sampling interval. The average and standard deviation from the intervals are reported. Mass balance in the system was ascertained by comparing the sum of total transported solute and remaining donor solute with the starting mass of solute and is expressed as a percentage of donor solute at time zero. […] In the event of mass balance less than 70%, the cell monolayers were extracted with ACN and analyzed for the solute of interest. Determinations were conducted in duplicate.

[21] = system: MDCK-MDR1 cells; test: Permeability in MDCK-MDR1 cells; settings: MDR1-MDCK cell monolayers; for Permeability PA→B: apical to basal; for Permeability PB→A: basal to apical
[22] = not given; remark: listed apart in the source
[23] = ScN2a-cl3 dividing cells, 1st determination
[24] = ScN2a-cl3 dividing cells, 2nd determination
[25] = ScN2a-cl3 dividing cells, 3rd determination
[26] = ScN2a-cl3 dividing cells, mean of three determinations
[27] = read-out: Antiprion activity ScN2a-cl3 EC50, ScN2a-cl3 cells
[28] = read-out: Dividing ELISA EC50 (μM) 1st Expt., ScN2a-cl3 dividing cells, 1st determination
[29] = read-out: Dividing ELISA EC50 (μM) 2nd Expt., ScN2a-cl3 dividing cells, 2nd determination
[30] = read-out: Dividing ELISA EC50 (μM) 3rd Expt., ScN2a-cl3 dividing cells, 3rd determination
[31] = read-out: Dividing ELISA EC50 (μM) Mean, ScN2a-cl3 dividing cells, mean of three determinations

SMILES: Cc1cccc(Nc2nc(-c3cc4ccccc4o3)cs2)n1 [IND22, (4-Benzofuran-2-yl-thiazol-2-yl)-(6-methyl-pyridin-2-yl)-amine]
- solubility in FaSSIF (in words) (fasted-state simulated intestinal fluid): higher solubility
- solubility at pH 2.0 (in words) (pH 2 (HCl) buffer): higher solubility
- Toleration ([1]; 210 mg/kg/day for 14 days, mice): well tolerated
- Earliest deaths in treated mice ([1]; long-term dosing in mice): 59 days
- Kp ([2]; female, FVB, mouse, brain and plasma, po, 10 mg/kg): 0.5
- bioavailability ([2]; female, FVB, mouse, plasma, po, 10 mg/kg): 46%
- Brain exposure (AUClast) ranking ([2]; single oral dose, FVB mice, brain): highest AUC values in brain
- Papp A→B [3]: 9.5 ×10⁻⁶ cm/s
- Papp B→A [3]: 8.4 ×10⁻⁶ cm/s
- efflux ratio [4]: 0.9
- solubility ([5]; FaSSIF): 59 µM (≈ 18.1 µg/mL)
- solubility ([5]; cell culture media, plasma or biological fluid): 20 µM (≈ 6.15 µg/mL)
- solubility ([5]; pH 2 (HCl) buffer, pH 2, simulated gastric fluid): 12 µM (≈ 3.69 µg/mL)
- solubility ([5]; pH 7.4 (phosphate) buffer, pH 7.4, aqueous buffer): < 1 µM
- half-life at 1 μM ([6]; Sprague-Dawley, rat, […], pH 7.4): > 60 min
- % remaining after a 60-min incubation, Rat ([6]; […], 60-min incubation): 64%
- Hepatic Extraction Ratio Rat ([6]; rat microsomes): 0.4
- EC50 [7]: > 10 µM
- half-life at 1 μM ([8]; CD-1, mouse, liver microsomes): 49 min
- half-life at 1 μM ([8]; CD-1, mouse, mouse liver microsomes): 49 min
- Hepatic Extraction Ratio Mouse ([8]; mouse): 0.7
- % remaining after a 60-min incubation, Mouse ([8]; mouse liver microsomes, 60-min incubation): 40%
- Hepatic Extraction Ratio Mouse ([8]; mouse microsomes): 0.7
- EC50 [9]: 1.46 µM
- % remaining after a 60-min incubation, Human ([10]; human liver microsomes, 60-min incubation): 99%
- half-life at 1 μM ([10]; human liver microsomes): > 60 min
- half-life at 1 μM ([10]; liver microsomes): > 60 min
- EC50 ([11]; AMT analogs tested for potency): 1.46 µM
- EC50 ([11]; Table 29, 2-AMT analogs tested for potency, usually n = 3 or more): 1.46 µM
- concentration at 3 days ([12]; 40 mg/kg, Brain Concentration (Css), brain): 1310 ± 390 nM
- concentration at 3 days ([12]; 40 mg/kg, Plasma Concentration (Css), plasma): 1490 ± 150 nM
- concentration at 3 days ([12]; 80 mg/kg, Brain Concentration (Css), brain): 2700 ± 520 nM
- concentration at 3 days ([12]; 80 mg/kg, Plasma Concentration (Css), plasma): 2140 ± 580 nM
- concentration at 3 days ([12]; 130 mg/kg, Brain Concentration (Css), brain): 3740 ± 410 nM
- concentration at 3 days ([12]; 130 mg/kg, Plasma Concentration (Css), plasma): 2500 ± 670 nM
- concentration at 3 days ([12]; 210 mg/kg, Brain Concentration (Css), brain): 3230 ± 2620 nM
- concentration at 3 days ([12]; 210 mg/kg, Plasma Concentration (Css), plasma): 1980 ± 1240 nM

SMILES: COc1ccnc(Nc2nc(-c3cc(-c4ccccc4)no3)cs2)c1 [IND112, (4-Methoxy-pyridin-2-yl)-[4-(3-phenyl-isoxazol-5-yl)-thiazol-2-yl]-amine]
- EC50 [7]: > 10 µM
- EC50 [9]: 0.251 µM
- EC50 ([11]; AMT analogs tested for potency): 0.251 µM

SMILES: COc1ccc(Nc2nc(-c3cc(-c4ccccc4)no3)cs2)nc1 [IND120, (5-Methoxy-pyridin-2-yl)-[4-(3-phenyl-isoxazol-5-yl)-thiazol-2-yl]-amine]
- EC50 [7]: > 10 µM
- EC50 [9]: 0.229 µM
- EC50 ([11]; AMT analogs tested for potency): 0.229 µM

SMILES: COc1cc(OC)cc(C(=O)Nc2ccc(I)cn2)c1 [IND85671]
- EC50 [13]: 1.1 µM
- EC50 [14]: 0.863 µM

SMILES: NC(=O)c1ccccc1NC(=O)c1cccnc1N1CCCCC1 [IND87406]
- EC50 [13]: 1.12 µM
- EC50 [14]: 3.11 µM
- Hepatic Extraction Ratio Mouse ([8]; mouse liver microsomes, predicted hepatic extraction): 0.91
- half-life at 1 μM ([8]; mouse, mouse liver microsomes): 6.35 min
- Hepatic Extraction Ratio Human ([10]; human liver microsomes, predicted hepatic extraction): 0.65
- half-life at 1 μM ([10]; human liver microsomes): 37.1 min

SMILES: CCOC(=O)c1[nH]c2c(c1C)C(=O)CC(c1ccco1)C2 (stereo not shown) [IND87564]
- EC50 [13]: 0.25 µM
- EC50 [14]: 1.12 µM

SMILES: Cc1cccc(Nc2nc(-c3ccc(-c4ccc(OCC#N)nc4)cc3)cs2)n1 [IND-0116165]
- solubility ([15]; pH 1.2, simulated gastric fluid): 2.2 µM (≈ 0.879 µg/mL)
- solubility ([15]; pH 7.4, aqueous buffer): < 0.4 µM
- Analiza solubility (μM) pH 7.4 [16]: <0.4 μM

SMILES: COc1ccc(-c2csc(Nc3ccc(C(F)(F)F)cn3)n2)cc1OC [compound 12, [4-(3,4-dimethoxyphenyl)-thiazol-2-yl]-(5-trifluoromethylpyridin-2-yl)-amine]
- EC50 [17]: > 32 µM
- EC50 [18]: > 32 µM
- Microsome stability T1/2 ([6]; […]): 150 min
- metabolic stability (in words) [19]: excellent stability
- P-gp substrate status, absorptive vs secretory permeability [20]: greater permeability in the absorptive direction
- Permeability PA→B [21]: 9.4 10^−6 cm/sec
- Permeability PB→A [21]: 8.7 10^−6 cm/sec
- Dividing ELISA pEC50 (μM) 1st Expt. [11, 23]: 5.53
- Dividing ELISA pEC50 (μM) 2nd Expt. [11, 24]: 5.69
- Dividing ELISA pEC50 (μM) 3rd Expt. [11, 25]: 5.58
- Dividing ELISA pEC50 (μM) Mean [11, 26]: 5.60
- EC50 [11, 27]: 2.53 µM
- EC50 [11, 28]: 2.93 µM
- EC50 [11, 29]: 2.05 µM
- EC50 [11, 30]: 2.62 µM
- EC50 [11, 31]: 2.53 µM

SMILES: COc1ccc(-c2csc(Nc3cc4ccccc4cn3)n2)cc1OC [compound 17, [4-(3,4-dimethoxyphenyl)-thiazol-2-yl]isoquinolin-3-yl-amine]
- EC50 [17]: > 32 µM
- EC50 [18]: > 32 µM
- Microsome stability T1/2 ([6]; […]): 83 min
- metabolic stability (in words) [19]: excellent stability
- P-gp substrate status, absorptive vs secretory permeability [20]: greater permeability in the absorptive direction
- EC50 [11, 28]: 0.101 µM

SMILES: COc1ccc(-c2csc(Nc3ccc4ccccc4n3)n2)cc1OC [compound 18, [4-(3,4-dimethoxyphenyl)-thiazol-2-yl]-quinolin-2-yl-amine]
- EC50 [17]: > 32 µM
- EC50 [18]: > 32 µM
- Microsome stability T1/2 ([6]; […]): 69 min
- metabolic stability (in words) [19]: excellent stability
- P-gp substrate status, absorptive vs secretory permeability [20]: greater permeability in the absorptive direction
- Permeability PA→B [21]: 9.2 10^−6 cm/sec
- Permeability PB→A [21]: 8.9 10^−6 cm/sec
- Dividing ELISA pEC50 (μM) 1st Expt. [11, 23]: 6.31
- Dividing ELISA pEC50 (μM) 2nd Expt. [11, 24]: 6.47
- Dividing ELISA pEC50 (μM) 3rd Expt. [11, 25]: 6.34
- Dividing ELISA pEC50 (μM) Mean [11, 26]: 6.38
- EC50 [11, 27]: 0.43 µM
- EC50 [11, 28]: 0.486 µM
- EC50 [11, 29]: 0.34 µM
- EC50 [11, 30]: 0.453 µM
- EC50 [11, 31]: 0.426 µM

SMILES: Cc1ccc(Nc2nc(-c3c(-c4ccccc4)noc3C)cs2)nc1 [compound 28, [4-(5-Methyl-3-phenylisoxazol-4-yl)-thiazol-2-yl]-(5-methylpyridin-2-yl)-amine]
- melting point [22]: 267 to 269 °C
- EC50 [17]: > 32 µM
- EC50 [18]: > 32 µM
- Microsome stability T1/2 ([6]; […]): 19 min
- P-gp substrate status, absorptive vs secretory permeability [20]: greater permeability in the absorptive direction
- Permeability PA→B [21]: 11.2 10^−6 cm/sec
- Permeability PB→A [21]: 8.6 10^−6 cm/sec
- Dividing ELISA pEC50 (μM) 1st Expt. [11, 23]: 4.52
- Dividing ELISA pEC50 (μM) 2nd Expt. [11, 24]: 4.82
- Dividing ELISA pEC50 (μM) 3rd Expt. [11, 25]: >4.5
- EC50 [11, 27]: > 26 µM
- EC50 [11, 28]: 30 µM
- EC50 [11, 29]: 15.2 µM
- EC50 [11, 30]: > 32 µM
- EC50 [11, 31]: > 26 µM
